Columns and labels:
HEK293T cells [1] = assay: Overcorrection of intracellular pH after acute acidification, with and without monensin and nigericin; assay type: cell-based, human; settings: 10 μM nigericin and 10 μM monensin together
Protocol: FIG. 7. Overcorrection of intracellular pH levels following acute acidification. (left) Real-time traces of HEK293T cells expressing SypHer and pH-Control in response to 1 mM βCDA in the presence (pink curve and (right) bars, n= 3/15) and absence (green curve and (right) bars n= 3/13) 10 μM nigericin and 10 μM monensin that permeabilize the plasma membrane. Student's t-test has been applied.
(§1) For live-cell imaging experiments, a HEPES-buffered physiological solution was used consisting of 2 mM CaCl2, 5 mM KCl, 138 mM NaCl, 1 mM MgCl2, 10 mM HEPES, 10 mM D-Glucose, and pH was adjusted to 7.43 using 1 M NaOH. For experiments with nigericin (N7143, Merck) and monensin (M5273, Merck), imaging buffered contained 5 mM KCl, 138 mM NaCl, 1 mM MgCl2, 20 mM HEPES, 10 mM D-Glucose, 0.2 mM EGTA and pH was adjusted to the desired value using either 1 M NaOH or 1M HCl. To prepare β-Chloro-D-alanine solutions, the powder was dissolved in imaging buffer and the pH was readjusted to 7.43.
Widefield imaging experiments were performed on a Zeiss Axio Observer.Z1/7 (Carl Zeiss AG, Oberkochen, Germany) equipped with an LED light source Colibri 7 (423/44 nm, 469/38 nm, 555/30), PlanApochromat 20x/0.8 dry objective, Plan-Apochromat 40x/1.4 oil immersion objective, a monochrome CCD camera Axiocam 503. […]

DsRed-stDCyD = molecular target: T1, DsRed-stDCyD (Salmonella typhimurium, UniProt Q8ZNT7); assay: SypHer3s live-cell imaging of intracellular pH in HEK293T cells expressing pH-Control, substrates administered; assay type: cell-based, human; settings: for selectivity test: enzyme response in comparison to βCDA: FIG. 1f; for ability to acidify cell compartments: cells expressing stDCyD
T1 construct: expressed in transfected cells; host or cells: HEK293 / HEK293T
T1 sequence (Q8ZNT7 whole entry, added parts left off): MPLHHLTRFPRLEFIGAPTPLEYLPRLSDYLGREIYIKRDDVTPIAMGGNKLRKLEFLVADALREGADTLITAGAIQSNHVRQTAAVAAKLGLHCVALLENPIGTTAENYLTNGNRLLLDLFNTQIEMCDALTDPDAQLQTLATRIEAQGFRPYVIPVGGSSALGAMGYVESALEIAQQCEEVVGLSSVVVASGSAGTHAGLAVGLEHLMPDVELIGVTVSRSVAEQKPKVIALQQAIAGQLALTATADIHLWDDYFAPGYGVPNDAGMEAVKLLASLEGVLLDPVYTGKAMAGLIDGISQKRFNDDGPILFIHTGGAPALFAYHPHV
Protocol: as §1
(§2) Characterization studies have been performed in cultured human embryonic kidney cells (HEK293), grown in a high-glucose (4.5 g/L) complete medium including 10% FBS and 100 μg/ml streptomycin and 100 U/ml penicillin in a humidified incubator (37° C., 5% CO2). 24 hours before transfection, cells were seeded (˜3×10^5 cells per well) on a 30 mm glass coverslips No.1 (Glaswarenfabrik Karl Knecht Sondheim, Germany). At ˜70-80% confluency, cells were co-transfected with CMV-driven mammalian expression vectors (pLenti-MP2) encoding for differential targeted SypHer3s or DsRed-stDCyD enzymes using PolyJet transfection reagent according to the manufacturer's instructions. All imaging experiments were performed 24 h after transfection. HEK293T cells were cultured up to passage 30.
Widefield imaging experiments were performed on a Zeiss Axio Observer.Z1/7 (Carl Zeiss AG, Oberkochen, Germany) equipped with an LED light source Colibri 7 (423/44 nm, 469/38 nm, 555/30), PlanApochromat 20x/0.8 dry objective, Plan-Apochromat 40x/1.4 oil immersion objective, a monochrome CCD camera Axiocam 503. A custom-made pump-driven perfusion system was used to administrate and withdraw substrates to cells placed in a metal perfusion chamber (NGFI, Graz, Austria). SypHer signals were imaged by alternately exciting cells using a motorized dual-filter wheel equipped with beam splitters (FT455 (for SypHer low, F420) and FT495 (for SypHer high, F490)). Emissions were alternately collected using a bandpass filter (BP 525/50). DsRed-stDyCD emission was collected using the filter combinations FT570 (BS) and emission filter 605/70. During live-imaging data acquisition was performed using Zen Blue 3.1 Pro software (Carl Zeiss AG, Oberkochen, Germany). Confocal imaging was performed using a laser scanning confocal microscope LSM 800 (Zeiss, Germany) equipped with a Plan-Apochromat 40x/1.3 DIC (UV) VIS-IS oil immersion objective. SypHer biosensors were excited with a 488 nm and 405 nm laser, and emissions were collected using a 509 nm filter system. SypHer signals were acquired with an A GaAsP-PMT detector and 400-565 nm filter using a Multialkali-PMT detector. DsRed-stDCyD constructs were excited using a 561 nm laser, and the emission wavelength was captured between 616 and 700 nm. The digital detector gain for all channels was set at 1; detector gain was applied between 500 and 1000 V. Laser intensities were set between 0.90% and 0.95%, and the pinhole was set between 29 and 32 μm according to the expression level of the fluorescent proteins. Bright-field mode was imaged using a photodiode detector. Zen Blue 3.1 software (Zeiss, Germany) was used to determine regions of interest.

HEK293T cells [2] = assay: SypHer3s live-cell imaging of intracellular pH in cells without the enzyme; assay type: cell-based, human
Protocol: as §1
as §2, with “30. […]” for “30.”

[3] = test system: mouse primary dorsal root ganglion (DRG) neurons; assay: SypHer3s imaging in primary DRG neurons expressing pH-Control; assay type: cell-based; settings: different concentrations (10 or 1 mM, FIG. 1h)
Protocol: (§3) Primary Neuron Culture: WT C57BL/6 mice were euthanized via cervical dislocation. Bilateral DRGs from all segments were dissected and then put in an ice-cold RPMI 1640 medium (R0883, Gibco). For enzymatic dissociation, ganglia were incubated with 100 U/mL collagenases (C9407, Sigma) in a neural medium containing 2% B27 (17504-044, Gibco), 2 mM Glutamax-I (35050-61, Gibco), 100 U penicillin, and […] (15140-122, Gibco) in Neural Basal Medium (NBA, 10888-022, Gibco) at 37C, 5% CO2. Following a 40 min incubation time, the medium containing collagenase was removed, and the ganglia were washed using Hank's buffered salt solution (H9269, Sigma). The ganglia were further enzymatically dissociated using 1 mg/mL trypsin (25300-054, Gibco) in the neural medium for 15 min at 37° C., 5% CO2. At the end of incubation, […] DNAse (D4513, Sigma) was added to the trypsin solution cell suspension to inhibit free DNA fragments, and the tissues were triturated by pipetting to obtain single cells. 30 min after incubation at 37° C., 5% CO2, the cell suspension was spun at 120 g for 3 min and resuspended neural medium supplemented with 10% fetal calf serum and […] trypsin inhibitor (T6522, Sigma) to inhibit enzymatic activity. […]

[4] = test system: mouse primary dorsal root ganglion (DRG) neurons; assay: Membrane potential imaging with voltage sensor ASAP2s in DRG neurons co-expressing pH-Control; assay type: cell-based; settings: 10 mM βCDA versus high extracellular potassium (50 mM)
Protocol: as §3

CC[C@@]1([C@@H]2O[C@@H]([C@H]3O[C@@](O)(CO)[C@H](C)C[C@@H]3C)C[C@@H]2C)CC[C@H]([C@]2(C)CC[C@]3(C[C@H](O)[C@@H](C)[C@@H]([C@@H](C)[C@@H](OC)[C@H](C)C(=O)O)O3)O2)O1 [monensin]
intracellular pH overcorrection after withdrawal of 1 mM βCDA (HEK293T cells [1]): diminished

C[C@@H](N)C(=O)O [D-alanine]
selectivity test: enzyme response in comparison to βCDA (DsRed-stDCyD): remained agnostic
ability to acidify cell compartments (DsRed-stDCyD): not

N[C@H](CCl)C(=O)O [βCDA, β-chloro-D-alanine]
biosensor signal after withdrawal of substrate (DsRed-stDCyD; after recovery, indicates cellular alkalization (FIGS. 1c, 1g, 5a)): overshot the baseline
SypHer response to different levels of substrate (DsRed-stDCyD; cells expressing pH-Control, constitutive administration of different levels (FIG. 1e)): concentration-dependent and fully reversible SypHer response
intracellular acidification documented by SypHer3s (DsRed-stDCyD; cells expressing pH-Control, high concentrations of βCDA (13.4 mM, FIG. 1c)): robust intracellular acidification
ability to acidify cell compartments (DsRed-stDCyD): can acidify cell compartments
SypHer response of cells only expressing SypHer (HEK293T cells [2]; different levels of substrate (FIG. 1e, right panel)): remained unresponsive
SypHer3s response of wild-type cells without the enzyme (HEK293T cells [2]; same high-concentration treatment (13.4 mM, FIG. 1c)): marginal response
SypHer3s signals in DRG neurons [3]: robust SypHer3s signals
depolarization of membrane potential (ASAP2s) [4]: depolarized primary neurons even stronger than high extracellular potassium

CO[C@@H]1C[C@@H](C[C@H]2CC[C@H](C)[C@H]([C@@H](C)C(=O)O)O2)O[C@]2(O[C@](C)([C@H]3CC[C@@](C)([C@@H]4O[C@@H]([C@H]5O[C@@](O)(CO)[C@H](C)C[C@@H]5C)C[C@@H]4C)O3)C[C@H]2C)[C@@H]1C [nigericin]
intracellular pH overcorrection after withdrawal of 1 mM βCDA (HEK293T cells [1]): diminished

N[C@H](CS)C(=O)O [D-Cysteine]
decrease in pHi (DsRed-stDCyD; 10 mM): marginal decrease in pHi

N[C@@H](CCl)C(=O)O [βCLA, β-chloro-L-alanine]
selectivity test: enzyme response in comparison to βCDA (DsRed-stDCyD): marginal responses

— patent publication US20260023087A1, “A Novel Chemogenetic Tool Permitting Modulation of Intracellular pH” (ISTANBUL MEDIPOL UNIVERSITESI, priority 2023, published 2026)
